assay: log P by HPLC on a reversed-phase column (C18), EEC Directive 79/831 Annex V.A8; assay type: physicochemical; details: HCOOH
Experimental: The stated log P values were determined in accordance with EEC Directive 79/831 Annex V.A8 by HPLC (High Performance Liquid Chromatography) using a reversed-phase column (C18).

| SMILES | log P (HCOOH) |
| --- | --- |
| Cc1cc(-n2nc(C(F)(F)F)cc2N)ccc1C(=O)NCc1ccccn1 [XI-A-089] | XI-A-089: log P (HCOOH): 2.45 |
| Nc1c(-c2ccc(Cl)cc2)c(C(F)(F)F)nn1-c1ccc(C(=O)NC2CC2)cc1 [I-A-Q2-163] | I-A-Q2-163: log P (HCOOH): 3.13 |
| Cc1cc(-n2nc(C(F)(F)F)c(I)c2N)ccc1C(=O)NCC(F)(F)C(F)F [XI-A-094] | XI-A-094: log P (HCOOH): 3.08 |
| C=CCNC(=O)c1ccc(-n2nc(C(F)(F)F)c(-c3cc(Cl)cc(Cl)c3)c2N)cc1 [I-A-Q2-144] | I-A-Q2-144: log P (HCOOH): 3.93 |
| Cc1cnc2c(c1)CCCC2NC(=O)c1ccc(-n2nc(C(F)(F)F)c(-c3cc(Cl)cc(Cl)c3)c2N)cc1C (stereo not drawn) [I-A-Q2-051] | I-A-Q2-051: log P (HCOOH): 3.06 |
| Cc1cc(-n2nc(C(F)(F)F)c(-c3cc(Cl)cc(Cl)c3)c2N)ccc1C(=O)NCc1ncc(C(F)(F)F)cc1Cl [I-A-Q2-230] | I-A-Q2-230: log P (HCOOH): 4.89 |
| Nc1c(-c2cccc(Br)c2)c(C(F)(F)F)nn1-c1ccc(C(=O)NC2CC2)cc1 [I-A-Q2-173] | I-A-Q2-173: log P (HCOOH): 3.11 |
| Cc1cc(CNC(=O)c2ccc(-n3nc(C(F)(F)F)c(-c4cc(Cl)cc(Cl)c4)c3N)cc2C)n(C)n1 [I-A-Q2-254] | I-A-Q2-254: log P (HCOOH): 3.58 |
| Cc1cc(-n2nc(C)c(-c3cc(Cl)ccc3Cl)c2N)ccc1C(=O)NCc1ccccn1 [I-A-Q2-375] | I-A-Q2-375: log P (HCOOH): 2.04 |
| Cc1cc(-n2nc(C(F)(F)F)c(-c3ccc(F)c(F)c3)c2N)ccc1C(=O)NCC(F)(F)C(F)F [I-A-Q2-312] | I-A-Q2-312: log P (HCOOH): 3.42 |
| Nc1c(-c2cc(Cl)cc(Cl)c2)c(C(F)(F)F)nn1-c1ccc(C(=O)NCc2cccnc2)cc1 [I-A-Q2-143] | I-A-Q2-143: log P (HCOOH): 2.59 |
| Cc1ncc(CNC(=O)c2ccc(-n3nc(C(F)(F)F)c(-c4cc(Cl)cc(Cl)c4)c3N)cc2C)c(N)n1 [I-A-Q2-053] | I-A-Q2-053: log P (HCOOH): 2.04 |
| Cc1cc(-n2nc(C(F)(F)F)c(-c3ccccc3C)c2N)ccc1C(=O)NCc1ccccn1 [I-A-Q2-359] | I-A-Q2-359: log P (HCOOH): 2.34 |
| CC(NC(=O)c1ccc(-n2nc(C(F)(F)F)c(-c3cc(Cl)cc(Cl)c3)c2N)nc1)C(F)(F)F (stereo not drawn) [I-A-Q2-100] | I-A-Q2-100: log P (HCOOH): 4.96 |
| Cc1cc(-n2nc(C(F)(F)F)c(-c3cc(Cl)cc(Cl)c3)c2N)ccc1C(=O)NC(Cc1ccccn1)C(F)(F)F (stereo not drawn) [I-A-Q2-049] | I-A-Q2-049: log P (HCOOH): 4.28 |
| Nc1c(-c2cccc(F)c2)c(C(F)(F)F)nn1-c1ccc(C(=O)NCc2ccccn2)cc1 [I-A-Q2-185] | I-A-Q2-185: log P (HCOOH): 2.14 |
| CSc1cc(-n2nc(C(C)(C)C)c(-c3cc(Cl)cc(Cl)c3)c2N)ccc1C(=O)NCc1ccccn1 [I-A-Q2-408] | I-A-Q2-408: log P (HCOOH): 3.68 |
| Cc1cc(-n2nc(C(F)(F)F)c(-c3cc(Cl)cc(Cl)c3)c2N)ccc1C(=O)NCc1ccc(Cl)nc1 [I-A-Q2-219] | I-A-Q2-219: log P (HCOOH): 4.05 |
| COC(=O)c1ccc(-n2nc(C(F)(F)F)cc2N)cc1C [XI-A-080] | XI-A-080: log P (HCOOH): 1.97 |

| SMILES | log P (HCOOH) |
| --- | --- |
| Cc1cc(-n2nc(C(F)(F)F)c(-c3cc(Cl)cc(Cl)c3)c2N)ccc1C(=O)NC1CCCCC1C(F)(F)F (stereo not drawn) [I-A-Q2-274] | I-A-Q2-274: log P (HCOOH): 4.95 |
| Cc1cc(-n2nc(C(F)(F)F)c(-c3ccccc3Cl)c2N)ccc1C(=O)NCC1CC1 [I-A-Q2-413] | I-A-Q2-413: log P (HCOOH): 3.37 |
| Nc1c(-c2cc(Cl)cc(Cl)c2)c(C(F)(F)F)nn1-c1ccc(C(=O)NCc2ccccc2)cc1 [I-A-Q2-152] | I-A-Q2-152: log P (HCOOH): 4.45 |
| CC(NC(=O)c1ccc(-n2nc(C(F)(F)F)c(-c3cc(Cl)cc(Cl)c3)c2Br)cc1)C(F)(F)F (stereo not drawn) [I-A-Q2-096] | I-A-Q2-096: log P (HCOOH): 5.35 |
| Cc1nc(CNC(=O)c2ccc(-n3nc(C(F)(F)F)c(-c4cc(Cl)cc(Cl)c4)c3N)cc2C)c(C)o1 [I-A-Q2-251] | I-A-Q2-251: log P (HCOOH): 3.84 |
| CC(NC(=O)c1ccc(-n2nc(C(F)(F)F)c(-c3cccc(Cl)c3)c2N)cc1)C(F)(F)F (stereo not drawn) [I-A-Q2-083] | I-A-Q2-083: log P (HCOOH): 3.68 |
| Nc1c(-c2ccc(F)c(F)c2)c(C(F)(F)F)nn1-c1ccc(C(=O)NCc2ccccn2)cc1 [I-A-Q2-177] | I-A-Q2-177: log P (HCOOH): 2.27 |
| CC(NC(=O)c1ccc(-n2nc(C(F)(F)F)c(-c3ccc(Br)cc3)c2N)cc1)C(F)(F)F (stereo not drawn) [I-A-Q2-188] | I-A-Q2-188: log P (HCOOH): 3.78 |
| Cc1cc(-n2nc(C(F)(F)F)c(-c3cc(Cl)cc(Cl)c3)c2N)ccc1C(=O)NCC(F)(F)Br [I-A-Q2-268] | I-A-Q2-268: log P (HCOOH): 4.45 |
| Nc1c(-c2ccc(Cl)c(Cl)c2)c(C(F)(F)F)nn1-c1ccc(C(=O)NCC(F)F)cc1 [I-A-Q2-159] | I-A-Q2-159: log P (HCOOH): 3.65 |
| Cc1cc(-n2nc(C)c(-c3cc(F)ccc3F)c2N)ccc1C(=O)NCC(F)(F)C(F)F [I-A-Q2-332] | I-A-Q2-332: log P (HCOOH): 2.59 |
| Cc1cc(-n2nc(C(F)(F)F)c(-c3cc(Cl)cc(Cl)c3)c2N)ccc1C(=O)NCC(C)O (stereo not drawn) [I-A-Q2-262] | I-A-Q2-262: log P (HCOOH): 3.28 |
| Cc1cc(-n2nc(C(F)(F)F)c(-c3ccc(Cl)c(Cl)c3)c2N)ccc1C(=O)NC(C)C(F)(F)F (stereo not drawn) [I-A-Q2-019] | I-A-Q2-019: log P (HCOOH): 4.57 |
| Cc1cc(-n2nc(C(F)F)c(-c3ccc(Cl)cc3)c2N)ccc1C(=O)NCc1ccccn1 [I-A-Q2-362] | I-A-Q2-362: log P (HCOOH): 2.27 |
| Cc1cc(-n2nc(C(F)(F)F)c(-c3cc(Cl)cc(Cl)c3)c2N)ccc1C(=O)NCC(F)(F)C(F)(F)C(F)(F)F [I-A-Q2-266] | I-A-Q2-266: log P (HCOOH): 4.89 |
| Nc1c(I)c(C(F)(F)F)nn1-c1ccc(C(=O)O)cc1 [XI-A-045] | XI-A-045: log P (HCOOH): 2.47 |
| CNC(=O)c1ccc(-n2nc(C(F)(F)F)c(-c3ccc(Cl)c(Cl)c3)c2N)cc1 [I-A-Q2-194] | I-A-Q2-194: log P (HCOOH): 3.37 |
| Nc1c(Cl)c(C(F)(F)F)nn1-c1ccc(C(=O)O)cc1 [XI-A-043] | XI-A-043: log P (HCOOH): 2.34 |

same assay, conditions: HCOOH; Table 4, compounds of formula I-A-Q4

| SMILES | log P (HCOOH) |
| --- | --- |
| CC(C)Cc1nn(-c2ccc(Cl)cn2)c(N)c1-c1ccc(Cl)cc1 [I-A-Q4-062] | I-A-Q4-062: log P (HCOOH): 5.97 |
| Nc1c(-c2cc(F)c(F)c(F)c2)c(C(F)(F)F)nn1-c1ccc(Cl)cn1 [I-A-Q4-053] | I-A-Q4-053: log P (HCOOH): 4.89 |
| FC(F)(F)c1nn(-c2ccc(I)cc2)c(I)c1-c1cc(Cl)cc(Cl)c1 [I-A-Q4-018] | I-A-Q4-018: log P (HCOOH): 6.50 |
| Nc1c(-c2cccc(F)c2)c(C(F)(F)F)nn1-c1ccc(C(=O)O)cc1 [I-A-Q4-097] | I-A-Q4-097: log P (HCOOH): 2.88 |
| Nc1c(-c2ccc(Cl)cc2)c(C2CC2)nn1-c1ccc(Cl)cn1 [I-A-Q4-024] | I-A-Q4-024: log P (HCOOH): 5.36 |
| Nc1c(-c2cc(Cl)cc(Cl)c2)c(C(F)(F)F)nn1-c1ccc(C(=O)O)cn1 [I-A-Q4-064] | I-A-Q4-064: log P (HCOOH): 4.23 |
| Nc1c(-c2ccc(Cl)cc2Cl)c(C(F)(F)F)nn1-c1ccc(Cl)cn1 [I-A-Q4-044] | I-A-Q4-044: log P (HCOOH): 5.02 |
| Cc1nn(-c2ccc(Cl)cn2)c(N)c1-c1ccc(Cl)c(Cl)c1 [I-A-Q4-060] | I-A-Q4-060: log P (HCOOH): 5.02 |
| CCOC(=O)c1ccc(-n2nc(C(F)(F)F)c(-c3cc(Cl)cc(Cl)c3)c2N)cc1 [I-A-Q4-086] | I-A-Q4-086: log P (HCOOH): 4.93 |
| CNc1cc(-n2nc(C(F)(F)F)c(-c3cc(Cl)cc(Cl)c3)c2N)ccc1C(=O)O [I-A-Q4-120] | I-A-Q4-120: log P (HCOOH): 4.11 |
| Nc1c(-c2cc(Cl)cc(C(F)(F)F)c2)c(C(F)(F)Cl)nn1-c1ccc(Cl)cn1 [I-A-Q4-059] | I-A-Q4-059: log P (HCOOH): 5.81 |
| Nc1c(-c2cc(F)cc(Cl)c2)c(C(F)(F)F)nn1-c1ccc(C(=O)O)cc1 [I-A-Q4-100] | I-A-Q4-100: log P (HCOOH): 3.32 |
| Nc1c(-c2ccc(Cl)c(Cl)c2)c(C(F)(F)F)nn1-c1ccc(Cl)cn1 [I-A-Q4-043] | I-A-Q4-043: log P (HCOOH): 5.44 |
| CN(C)c1cc(-n2nc(C(F)(F)F)c(-c3cc(Cl)cc(Cl)c3)c2N)ccc1C(=O)O [I-A-Q4-121] | I-A-Q4-121: log P (HCOOH): 3.07 |
| Nc1c(-c2ccc(Cl)cc2)c(C(F)F)nn1-c1ccc(Cl)cn1 [I-A-Q4-057] | I-A-Q4-057: log P (HCOOH): 4.45 |

same assay, conditions: HCOOH; compounds of the formula (IX), Table 11

| SMILES | log P (HCOOH) |
| --- | --- |
| Nc1[nH]nc(C(F)(F)F)c1-c1ccc(Cl)c(Cl)c1 [IX-38] | IX-38: log P (HCOOH): 2.80 |

same assay, conditions: HPLC, reversed-phase C18, mobile phase with formic acid

| SMILES | log P (HCOOH) |
| --- | --- |
| Cc1nn(-c2ccc(-n3cncn3)c(C#N)c2)c(N)c1-c1ccc(Cl)cc1Cl [I-A-Q1-056] | I-A-Q1-056: log P (HCOOH): 2.80 |
| N#Cc1cc(-n2nc(C(F)(F)F)c(-c3cc(Cl)cc(Cl)c3)c2N)ccc1-n1ccnc1C#N [I-A-Q1-077] | I-A-Q1-077: log P (HCOOH): 4.05 |
| N#Cc1cc(-n2nc(C(F)(F)F)c(-c3cc(Cl)cc(Cl)c3)c2N)ccc1-n1nc(C(F)(F)F)nc1N [I-A-Q1-093] | I-A-Q1-093: log P (HCOOH): 4.00 |
| Cc1nn(-c2ccc(-n3cncn3)c(C#N)c2)c(N)c1-c1ccccc1Cl [I-A-Q1-060] | I-A-Q1-060: log P (HCOOH): 2.27 |
| N#Cc1cc(-n2nc(C(F)(F)Cl)c(-c3cc(Cl)cc(C(F)(F)F)c3)c2N)ccc1-n1cncn1 [I-A-Q1-049] | I-A-Q1-049: log P (HCOOH): 4.11 |
| Cc1nc(C(F)(F)F)nn1-c1ccc(-n2nc(C(F)(F)F)c(-c3cc(Cl)cc(Cl)c3)c2N)cc1C#N [I-A-Q1-086] | I-A-Q1-086: log P (HCOOH): 4.57 |
| Cc1nn(-c2ccc(-n3cncn3)c(C#N)c2)c(N)c1-c1ccc(Cl)c(Cl)c1 [I-A-Q1-025] | I-A-Q1-025: log P (HCOOH): 3.02 |
| N#Cc1cc(-n2nc(C(F)(F)F)c(-c3ccc(Cl)cc3Cl)c2N)ccc1-n1cncn1 [I-A-Q1-045] | I-A-Q1-045: log P (HCOOH): 2.64 |
| Cc1nn(-c2ccc(-n3cncn3)c(C#N)c2)c(N)c1-c1ccc(F)cc1 [I-A-Q1-059] | I-A-Q1-059: log P (HCOOH): 2.30 |

same assay, conditions: HPLC, reversed-phase C18, mobile phase with formic acid; read-out: log P (HCOOH)

| SMILES | chromatographic logP |
| --- | --- |
| N#Cc1cc(N)ccc1-n1cncn1 [5-Amino-2-[1,2,4]triazol-1-ylbenzonitrile] | 1.01 |
